Test results published in PubChem BioAssay AID248 (DTP/NCI, 2004).
Values joined by “and” are separate entries in the source; they are usually repeats but may differ in a detail not shown here. Equal entries are not always repeated. Inconclusive results and toxic doses are left out. No stated cut-off is given here; in the data, active means T/C of 150% or more; inactive means T/C below 125%.

Tested on: L1210 leukemia ip in BDF1 mice, survival T/C
Experiment: NCI In Vivo Anticancer Drug Screen. Data for tumor model L1210 Leukemia (intraperitoneal) in B6D2F1 (BDF1) mice
Conditions: endpoint: mean survival time, higher = longer survival
In short: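 Read-out is survival time, reported as the treated-group measurement over the vehicle-control measurement.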

[1] = dose: 100.0 mg/kg/injection, schedule: Q01DX001 (ip), vehicle: saline
[2] = dose: 200.0 mg/kg/injection, schedule: Q01DX001 (ip), vehicle: saline
[3] = dose: 400.0 mg/kg/injection, schedule: Q01DX001 (ip), vehicle: saline
[4] = dose: 50.0 mg/kg/injection, schedule: Q01DX001 (ip), vehicle: carboxymethylcellulose (CMC)
[5] = dose: 100.0 mg/kg/injection, schedule: Q01DX001 (ip), vehicle: carboxymethylcellulose (CMC)
[6] = dose: 100.0 mg/kg/injection, schedule: Q04DX002 (ip), vehicle: Klucel (hydroxypropylcellulose) (HPC)
[7] = dose: 200.0 mg/kg/injection, schedule: Q04DX002 (ip), vehicle: Klucel (hydroxypropylcellulose) (HPC)
[8] = dose: 400.0 mg/kg/injection, schedule: Q04DX002 (ip), vehicle: Klucel (hydroxypropylcellulose) (HPC)
[9] = dose: 100.0 mg/kg/injection, schedule: Q01DX009 (ip), vehicle: saline
[10] = dose: 100.0 mg/kg/injection, schedule: Q04DX003 (ip), vehicle: saline
[11] = dose: 200.0 mg/kg/injection, schedule: Q01DX009 (ip), vehicle: saline
[12] = dose: 200.0 mg/kg/injection, schedule: Q04DX003 (ip), vehicle: saline
[13] = dose: 400.0 mg/kg/injection, schedule: Q04DX003 (ip), vehicle: saline
[14] = dose: 100.0 mg/kg/injection, schedule: Q04DX003 (ip), vehicle: Klucel (hydroxypropylcellulose) (HPC)
[15] = dose: 200.0 mg/kg/injection, schedule: Q04DX003 (ip), vehicle: Klucel (hydroxypropylcellulose) (HPC)
[16] = dose: 400.0 mg/kg/injection, schedule: Q04DX003 (ip), vehicle: Klucel (hydroxypropylcellulose) (HPC)
[17] = dose: 100.0 mg/kg/injection, schedule: Q01DX009 (ip), vehicle: saline with Tween-80
[18] = dose: 200.0 mg/kg/injection, schedule: Q01DX009 (ip), vehicle: saline with Tween-80
[19] = dose: 400.0 mg/kg/injection, schedule: Q01DX009 (ip), vehicle: saline with Tween-80
[20] = dose: 100.0 mg/kg/injection, schedule: Q04DX003 (ip), vehicle: saline with Tween-80
[21] = dose: 200.0 mg/kg/injection, schedule: Q04DX003 (ip), vehicle: saline with Tween-80
[22] = dose: 400.0 mg/kg/injection, schedule: Q04DX003 (ip), vehicle: saline with Tween-80
[23] = dose: 100.0 mg/kg/injection, schedule: Q01DX001 (ip), vehicle: Klucel (hydroxypropylcellulose) (HPC)
[24] = dose: 200.0 mg/kg/injection, schedule: Q01DX001 (ip), vehicle: Klucel (hydroxypropylcellulose) (HPC)

Measured: T/C

NC(=O)c1ncn(C2CCCC2O)c1N (configuration not stated)
inactive: [1] 91 % of control | [2] 102 % of control | [3] 86 % of control

CC1C(C(=O)O)CC([N+](=O)[O-])C(Cl)C1[N+](=O)[O-] (configuration not stated)
inactive: dose: 25.0 mg/kg/injection, schedule: Q01DX001 (ip), vehicle: carboxymethylcellulose (CMC) 92 % of control | dose: 25.0 mg/kg/injection, schedule: Q04DX003 (ip), vehicle: carboxymethylcellulose (CMC) 95 % of control | [4] 97 % of control | dose: 50.0 mg/kg/injection, schedule: Q01DX009 (ip), vehicle: carboxymethylcellulose (CMC) 95 % of control and 102 % of control | dose: 50.0 mg/kg/injection, schedule: Q04DX003 (ip), vehicle: carboxymethylcellulose (CMC) 98 % of control | [5] 102 % of control | dose: 100.0 mg/kg/injection, schedule: Q01DX009 (ip), vehicle: carboxymethylcellulose (CMC) 90 % of control | dose: 100.0 mg/kg/injection, schedule: Q04DX002 (ip), vehicle: carboxymethylcellulose (CMC) 101 % of control and 91 % of control | dose: 100.0 mg/kg/injection, schedule: Q04DX003 (ip), vehicle: carboxymethylcellulose (CMC) 102 % of control | dose: 200.0 mg/kg/injection, schedule: Q04DX002 (ip), vehicle: carboxymethylcellulose (CMC) 92 % of control and 105 % of control

O=C(Nc1ccc(S(=O)(=O)F)cc1)/C(=C\c1ccc([N+](=O)[O-])cc1)c1cccc(Cl)c1
inactive: [6] 94 % of control | [7] 105 % of control | [8] 105 % of control

CCOC(=O)c1csc(C)n1
inactive: [9] 103 % of control | [10] 99 % of control | [11] 102 % of control | [12] 96 % of control | dose: 400.0 mg/kg/injection, schedule: Q01DX009 (ip), vehicle: saline 109 % of control | [13] 92 % of control

C(=C/c1ccccc1)/C[P+](c1ccccc1)(c1ccccc1)c1ccccc1
inactive: dose: 1.25 mg/kg/injection, schedule: Q01DX009 (ip), vehicle: saline with Tween-80 97 % of control | dose: 2.5 mg/kg/injection, schedule: Q01DX009 (ip), vehicle: saline with Tween-80 94 % of control | dose: 5.0 mg/kg/injection, schedule: Q01DX009 (ip), vehicle: saline with Tween-80 98 % of control | dose: 5.0 mg/kg/injection, schedule: Q04DX003 (ip), vehicle: saline with Tween-80 98 % of control | dose: 10.0 mg/kg/injection, schedule: Q04DX003 (ip), vehicle: saline with Tween-80 86 % of control | dose: 20.0 mg/kg/injection, schedule: Q04DX003 (ip), vehicle: saline with Tween-80 90 % of control

CC1(C#N)CCc2c(ccc3ccccc23)C1=O (configuration not stated)
inactive: [9] 95 % of control | [10] 96 % of control | [11] 95 % of control | [12] 94 % of control | [13] 101 % of control

CCCCCCCCCCCCCCCOc1c(Cl)c(Cl)c(Cl)c(Cl)c1Cl
inactive: [14] 95 % of control | [15] 90 % of control | [16] 95 % of control

COC(=O)C1(C)CCCC2(C)C1CCC13OCC(CC21)C(=C(C)C)C3OC(C)=O (configuration not stated)
inactive: [17] 93 % of control | [18] 88 % of control | [19] 90 % of control

CC(c1ccccc1)C1N(c2ccccc2)CCN1c1ccccc1 (configuration not stated)
inactive: [14] 94 % of control | [15] 100 % of control | [16] 102 % of control

CC(C=O)CC1CCCCC1 (configuration not stated)
inactive: [17] 97 % of control | [20] 95 % of control | [18] 95 % of control | [21] 97 % of control | [19] 95 % of control | [22] 95 % of control

Cc1c2cnccc2c(C)c2c1c1ccccc1n2CCOC(=O)c1ccccc1
inactive: dose: 50.0 mg/kg/injection, schedule: Q01DX009 (ip), vehicle: saline with Tween-80 88 % of control | [17] 98 % of control and 88 % of control | [20] 100 % of control | [18] 93 % of control | [21] 97 % of control | [19] 95 % of control | [22] 91 % of control

O=C(COc1ccc(Cl)cc1)Nc1cccc2ccccc12
inactive: [6] 87 % of control | [7] 93 % of control | [8] 101 % of control

COC(=O)NS(=O)(=O)c1ccco1
inactive: [23] 92 % of control | [14] 100 % of control | [24] 98 % of control | [15] 106 % of control | dose: 400.0 mg/kg/injection, schedule: Q01DX001 (ip), vehicle: Klucel (hydroxypropylcellulose) (HPC) 101 % of control | [16] 89 % of control

O=C(CSSCC(=O)Nc1ccccc1O)Nc1ccccc1O
inactive: dose: 100.0 mg/kg/injection, schedule: Q01DX001 (ip), vehicle: other 88 % of control | dose: 200.0 mg/kg/injection, schedule: Q01DX001 (ip), vehicle: other 93 % of control | dose: 400.0 mg/kg/injection, schedule: Q01DX001 (ip), vehicle: other 89 % of control

C#CCCCc1ccccc1
inactive: [4] 102 % of control | [5] 98 % of control | dose: 200.0 mg/kg/injection, schedule: Q01DX001 (ip), vehicle: carboxymethylcellulose (CMC) 96 % of control | dose: 400.0 mg/kg/injection, schedule: Q01DX001 (ip), vehicle: carboxymethylcellulose (CMC) 96 % of control

COc1ccc(C2C(=O)c3ccccc3C2=O)cc1OC
inactive: [23] 94 % of control | [24] 88 % of control

COc1ccc(N=Nc2ccccc2)cc1
inactive: [14] 95 % of control | [15] 94 % of control | [16] 94 % of control

CNCCCN1c2ccccc2C(C)(C)c2ccccc21
inactive: [1] 97 % of control

O=C1CCCC(c2ccccc2)C1 (configuration not stated)
inactive: dose: 75.0 mg/kg/injection, schedule: Q01DX001 (ip), vehicle: other 95 % of control | dose: 150.0 mg/kg/injection, schedule: Q01DX001 (ip), vehicle: other 92 % of control | dose: 300.0 mg/kg/injection, schedule: Q01DX001 (ip), vehicle: other 95 % of control

Cc1ccc(NC(=O)Oc2cc(=O)oc3ccccc23)c([N+](=O)[O-])c1
inactive: [14] 89 % of control | [15] 94 % of control | [16] 96 % of control

c1ccc2c(C3CCCCN3)c[nH]c2c1 (configuration not stated)
inactive: dose: 12.5 mg/kg/injection, schedule: Q01DX009 (ip), vehicle: saline 88 % of control | dose: 25.0 mg/kg/injection, schedule: Q01DX009 (ip), vehicle: saline 90 % of control | dose: 25.0 mg/kg/injection, schedule: Q04DX003 (ip), vehicle: saline 103 % of control | dose: 50.0 mg/kg/injection, schedule: Q04DX003 (ip), vehicle: saline 92 % of control | [1] 97 % of control

CC1C[N+](C)(C)N=C1[O-] (configuration not stated)
inactive: [1] 104 % of control | [2] 98 % of control | [3] 95 % of control

O=[N+]([O-])c1ccc(N/N=C(\Cc2ccccc2)c2ccccc2)c([N+](=O)[O-])c1
inactive: [20] 91 % of control | [21] 91 % of control | [22] 87 % of control

O=C1Nc2ccccc2C1O (configuration not stated)
inactive: [1] 101 % of control | [2] 101 % of control | [3] 108 % of control
